Values joined by “and” are separate entries in the source; they are usually repeats but may differ in a detail not shown here. Equal entries are not always repeated.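 1) Cells in 96-well plates. 2) Compound, 48 h, 5 concentrations. 3) Linear interpolation between surrounding doses. 4) Unreached endpoint = highest concentration. GI50 = concentration required for 50% inhibition of growth. Definition used: TGI = concentration required for complete inhibition of growth.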

In PubChem BioAssay (NCI) one finds GI50 and TGI data, which are given here for 8 compounds.

Among the test systems are A498 renal; CCRF-CEM leukemia; HOP-92 NSCLC; LOX IMVI melanoma; MCF7 breast; NCI-H226 lung; NCI-H460 lung; RPMI-8226 leukemia; SF-268 CNS; U251 CNS.
Common to all, as to experiment: inhibition of tumour cell growth, NCI panel, 48 h

`O=C(CCN1CCOCC1)Nc1ccc(Cn2nnc3c2C(=O)c2nnn(Cc4ccc(NC(=O)CCN5CCOCC5)cc4)c2C3=O)cc1`: the GI50 is over 100 µM in the assay with A498 renal; 0.34 µM in the assay on CCRF-CEM leukemia; 2.36 µM in the assay on HOP-92 NSCLC; 0.678 µM with LOX IMVI melanoma; 0.271 µM in the assay on MCF7 breast; over 100 µM with NCI-H226 lung. Further, the GI50 was 0.569 µM in the assay on NCI-H460 lung, 1.43 µM in the assay on RPMI-8226 leukemia, 1.28 µM in the assay with SF-268 CNS and 4.25 µM in the assay with U251 CNS. In addition, the TGI was over 100 µM in the assay with A498 renal; over 100 µM in the assay on CCRF-CEM leukemia; 4.64 µM in the assay with HOP-92 NSCLC; 3.37 µM with LOX IMVI melanoma; 0.978 µM with MCF7 breast; over 100 µM in the assay with NCI-H226 lung. The TGI in the assay with NCI-H460 lung was over 100 µM; in the assay on RPMI-8226 leukemia, over 21.1 µM; in the assay with SF-268 CNS, over 100 µM; in the assay on U251 CNS, 18.4 µM.
For `O=c1c(Oc2ccc(F)cc2F)cc2cnc(NC3CCOCC3)nc2n1C1CC1`, the GI50 in the assay with A498 renal was 2.72 µM; with CCRF-CEM leukemia, over 25 µM; in the assay on HOP-92 NSCLC it was 0.172 µM; with LOX IMVI melanoma, over 25 µM; in the assay with MCF7 breast, over 25 µM; with NCI-H226 lung it was over 22.9 µM. Besides, the GI50 in the assay with NCI-H460 lung, with RPMI-8226 leukemia, in the assay on SF-268 CNS and in the assay on U251 CNS was over 25 µM each time. In addition, the TGI was over 25 µM in the assay with A498 renal; over 25 µM in the assay on CCRF-CEM leukemia; 10.6 µM in the assay on HOP-92 NSCLC; over 25 µM with LOX IMVI melanoma; over 25 µM in the assay with MCF7 breast; over 25 µM with NCI-H226 lung. Further, the TGI in the assay on NCI-H460 lung, in the assay on RPMI-8226 leukemia, in the assay on SF-268 CNS and with U251 CNS was over 25 µM in each case.
As for `C=C(C)c1nc(Oc2ccccc2)nc(Oc2ccccc2)n1`, the TGI with A498 renal was 31.1 µM; in the assay with CCRF-CEM leukemia it was 9.25 µM; with HOP-92 NSCLC it was 10.8 µM; in the assay with LOX IMVI melanoma, 4.51 µM; with MCF7 breast, 12.6 µM; with NCI-H226 lung, 36.7 µM. Further, the TGI with NCI-H460 lung stood at 22.8 µM; in the assay with RPMI-8226 leukemia it was 12 µM; in the assay on SF-268 CNS, 16.2 µM; in the assay with U251 CNS it was 23.2 µM.
`COc1cc2c(Oc3ccc(-c4cnc(Nc5ccc(F)cc5)n(C)c4=O)cc3F)ccnc2cc1OCCCN1CCOCC1`: the GI50 with A498 renal is 0.95 µM; in the assay on CCRF-CEM leukemia it was 3.04 µM; in the assay with HOP-92 NSCLC, 0.083 µM; in the assay on LOX IMVI melanoma it was 1.23 µM; in the assay with MCF7 breast it was 0.783 µM; in the assay with NCI-H226 lung, 1.16 µM. For the same compound, the GI50 in the assay on NCI-H460 lung is 1.51 µM; in the assay with RPMI-8226 leukemia, 1.84 µM; in the assay on SF-268 CNS, 1.46 µM; in the assay with U251 CNS, 1.66 µM. Further, the TGI in the assay on A498 renal is 2.46 µM; in the assay on CCRF-CEM leukemia, over 100 µM; with HOP-92 NSCLC it was 1.01 µM; in the assay on LOX IMVI melanoma, 2.55 µM; with MCF7 breast, 2.47 µM; with NCI-H226 lung it was 8.15 µM. Moreover, the TGI in the assay on NCI-H460 lung turned out to be 3.22 µM; with RPMI-8226 leukemia, 4.71 µM; with SF-268 CNS, 3.38 µM; in the assay on U251 CNS, 3.2 µM.
Regarding `COc1ccc(-n2c(=O)c3ccccc3n(Cc3ccc(C(=O)NO)cc3)c2=O)cc1`, the GI50 is 1.09 µM in the assay on A498 renal; 2.8 µM in the assay on CCRF-CEM leukemia; 2.1 µM in the assay on HOP-92 NSCLC; 1.76 µM in the assay on LOX IMVI melanoma; 2.68 µM in the assay on MCF7 breast; 1.56 µM in the assay with NCI-H226 lung. The GI50 was 2.58 µM in the assay with NCI-H460 lung, 2.42 µM in the assay on RPMI-8226 leukemia, 1.91 µM in the assay on SF-268 CNS and 1.78 µM in the assay on U251 CNS. For the same compound, the TGI in the assay with A498 renal was 3.25 µM; with CCRF-CEM leukemia, over 100 µM; with HOP-92 NSCLC, 5.33 µM; with LOX IMVI melanoma, 3.24 µM; in the assay with MCF7 breast it was 76.4 µM; in the assay on NCI-H226 lung it was 3.75 µM. The TGI in the assay with NCI-H460 lung amounted to 12.9 µM; in the assay on RPMI-8226 leukemia, 12.6 µM; with SF-268 CNS, 4.25 µM; in the assay with U251 CNS, 3.58 µM.
For `COc1ccc(Cn2c(Br)c3c(c2-c2cc(OC)c(OC)c(OC)c2)CCc2sc(N)nc2-3)cc1`, the GI50 was 0.267 µM with A498 renal; 0.89 µM in the assay with CCRF-CEM leukemia; 0.477 µM in the assay with HOP-92 NSCLC; 0.869 µM in the assay on LOX IMVI melanoma; 0.371 µM with MCF7 breast; 6.93 µM in the assay with NCI-H226 lung. In addition, the GI50 in the assay with NCI-H460 lung was 1.89 µM; in the assay with RPMI-8226 leukemia it was 3.16 µM; in the assay with SF-268 CNS, 1.73 µM; in the assay on U251 CNS, 1.3 µM. Further, the TGI in the assay on A498 renal was 2.36 µM; in the assay on CCRF-CEM leukemia it was 4.4 µM; in the assay on HOP-92 NSCLC, 2.88 µM; in the assay with LOX IMVI melanoma it was 6.14 µM; in the assay on MCF7 breast, 18.9 µM; with NCI-H226 lung it was over 50.6 µM. In addition, the TGI in the assay with NCI-H460 lung amounted to 10.2 µM; in the assay with RPMI-8226 leukemia it was 32.4 µM; in the assay with SF-268 CNS, 20.8 µM; in the assay on U251 CNS, 12.7 µM.
Consider `CNCc1cccc2c1OCCOCCOCCNS(=O)(=O)c1ccc(cc1)-c1cnc(N)c(n1)C(=O)N2`, for which the GI50 is 1.36 µM in the assay on A498 renal; 0.532 µM in the assay with CCRF-CEM leukemia; 3.05 µM in the assay on HOP-92 NSCLC; 0.889 µM in the assay on LOX IMVI melanoma; 0.439 µM in the assay on MCF7 breast; 2.21 µM with NCI-H226 lung. Moreover, the GI50 in the assay on NCI-H460 lung is 1 µM; in the assay on RPMI-8226 leukemia, 1.73 µM; with SF-268 CNS it was 1.04 µM; in the assay with U251 CNS it was 0.772 µM. Besides, the TGI in the assay with A498 renal stood at 3.79 µM; in the assay on CCRF-CEM leukemia, 8.57 µM; in the assay on HOP-92 NSCLC, 14.7 µM; in the assay on LOX IMVI melanoma, 2.27 µM; with MCF7 breast it was 5.11 µM; in the assay with NCI-H226 lung, 8.09 µM. For the same compound, the TGI in the assay with NCI-H460 lung stood at 3.25 µM; in the assay on RPMI-8226 leukemia, 4.26 µM; with SF-268 CNS, 3.31 µM; in the assay on U251 CNS, 2.23 µM.
Consider `COc1nc(N)nc2nc[nH]c12`, for which the GI50 in the assay on A498 renal was 306 µM and 335 µM; in the assay on CCRF-CEM leukemia it was 563 µM; in the assay on HOP-92 NSCLC, 511 µM and 596 µM; in the assay with LOX IMVI melanoma, 677 µM and 489 µM; in the assay with MCF7 breast it was 604 µM; with NCI-H226 lung, 400 µM and 380 µM. Also, the GI50 with NCI-H460 lung was 674 µM and 588 µM; with RPMI-8226 leukemia, 677 µM; in the assay with SF-268 CNS, 646 µM; in the assay with U251 CNS, > 800 µM and 741 µM. The TGI in the assay with A498 renal was 500 µM and 800 µM and 691 µM; with CCRF-CEM leukemia it was 407 µM and 800 µM and > 920 µM; with HOP-92 NSCLC, 480 µM and 800 µM and > 1000 µM; in the assay with LOX IMVI melanoma, 500 µM and 800 µM and > 1000 µM; with MCF7 breast it was 500 µM and > 1000 µM; in the assay on NCI-H226 lung, 458 µM and 800 µM and > 1000 µM. Also, the TGI is 500 µM and 800 µM and > 1000 µM in the assay on NCI-H460 lung; 500 µM and > 1000 µM in the assay with RPMI-8226 leukemia; 500 µM and 800 µM and > 1000 µM in the assay with SF-268 CNS; 500 µM and > 800 µM and > 1000 µM in the assay with U251 CNS.
